According to the supplement of paper PMC13207355:
Where a name gives a salt, the structure may show the parent alone.

Assays:
Conditions in all cases: exposure time: 72 h
E28 [1] = patient-derived glioblastoma stem cells of classical subtype; assay: surviving fraction (nuclei count normalised to DMSO); higher = more cells surviving (less toxic)
E34 [2] = patient-derived glioblastoma stem cells of proneural subtype; assay: as above
E13 [3] = patient-derived glioblastoma stem cells of classical subtype; assay: as above
E21 [4] = patient-derived glioblastoma stem cells of mesenchymal subtype; assay: as above
E57 [5] = patient-derived glioblastoma stem cells of mesenchymal subtype; assay: as above
FT3469 [6] = normal neural stem cell line; assay: as above
E31 [7] = patient-derived glioblastoma stem cells of proneural subtype; assay: as above
E28 [8] = assay: phenotypic distance (Euclidean, principal components) from DMSO controls (arbitrary units); higher = stronger morphological change
E34 [9] = assay: as above
E13 [10] = assay: as above
E21 [11] = assay: as above
E57 [12] = assay: as above
FT3469 [13] = assay: as above
E31 [14] = assay: as above
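Wherever phenotypic distance (Euclidean, principal components) from DMSO controls is given: cell Painting imaging in 384-well plates, CellProfiler features reduced to at least 20 principal components, Euclidean distance versus same-plate DMSO vehicle wells (0.1% v/v), median over six images per well.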
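Wherever surviving fraction (nuclei count normalised to DMSO) is given: nuclei counted by high-content imaging of Hoechst-stained cells in laminin-coated 384-well plates, relative to 0.1% DMSO vehicle wells, with staurosporine as cell-death control.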

Cc1ncc(CO)c(CO)c1O [Pyridoxine hydrochloride]
Conditions	phenotypic distance	surviving fraction
E13 [3], 4.1 nM	–	0.907
E13 [3], 12.3 nM	–	0.973
E13 [3], 37 nM	–	0.968
E13 [3], 111.1 nM	–	1.04
E13 [3], 333.3 nM	–	1.02
E13 [3], 1000 nM	–	0.905
E13 [3], 3000 nM	–	1.08
E13 [10], 4.1 nM	1.83	–
E13 [10], 12.3 nM	0.627	–
E13 [10], 37 nM	0.476	–
E13 [10], 111.1 nM	0.757	–
E13 [10], 333.3 nM	0.677	–
E13 [10], 1000 nM	0.715	–
E13 [10], 3000 nM	1.55	–
E21 [4], 4.1 nM	–	0.9
E21 [4], 12.3 nM	–	1.04
E21 [4], 37 nM	–	1.02
E21 [4], 111.1 nM	–	1.03
E21 [4], 333.3 nM	–	0.92
E21 [4], 1000 nM	–	1.06
E21 [4], 3000 nM	–	1.03
E21 [11], 4.1 nM	0.627	–
E21 [11], 12.3 nM	0.496	–
E21 [11], 37 nM	0.428	–
E21 [11], 111.1 nM	0.899	–
E21 [11], 333.3 nM	0.724	–
E21 [11], 1000 nM	0.617	–
E21 [11], 3000 nM	0.536	–
E28 [1], 4.1 nM	–	0.967
E28 [1], 12.3 nM	–	1.04
E28 [1], 37 nM	–	0.991
E28 [1], 111.1 nM	–	0.922
E28 [1], 333.3 nM	–	0.975
E28 [1], 1000 nM	–	0.968
E28 [1], 3000 nM	–	1.09
E28 [8], 4.1 nM	0.428	–
E28 [8], 12.3 nM	0.769	–
E28 [8], 37 nM	0.765	–
E28 [8], 111.1 nM	0.622	–
E28 [8], 333.3 nM	0.82	–
E28 [8], 1000 nM	1.01	–
E28 [8], 3000 nM	0.741	–
E31 [7], 4.1 nM	–	0.944
E31 [7], 12.3 nM	–	1.04
E31 [7], 37 nM	–	1.03
E31 [7], 111.1 nM	–	1.1
E31 [7], 333.3 nM	–	1.03
E31 [7], 1000 nM	–	1.01
E31 [7], 3000 nM	–	0.903
E31 [14], 4.1 nM	1.57	–
E31 [14], 12.3 nM	0.82	–
E31 [14], 37 nM	0.958	–
E31 [14], 111.1 nM	1.06	–
E31 [14], 333.3 nM	0.654	–
E31 [14], 1000 nM	0.523	–
E31 [14], 3000 nM	0.738	–
E34 [2], 4.1 nM	–	0.949
E34 [2], 12.3 nM	–	0.918
E34 [2], 37 nM	–	1.19
E34 [2], 111.1 nM	–	1.07
E34 [2], 333.3 nM	–	0.943
E34 [2], 1000 nM	–	0.916
E34 [2], 3000 nM	–	1.06
E34 [9], 4.1 nM	1.15	–
E34 [9], 12.3 nM	0.917	–
E34 [9], 37 nM	0.991	–
E34 [9], 111.1 nM	1.16	–
E34 [9], 333.3 nM	0.742	–
E34 [9], 1000 nM	0.612	–
E34 [9], 3000 nM	0.936	–
E57 [5], 4.1 nM	–	1.03
E57 [5], 12.3 nM	–	0.99
E57 [5], 37 nM	–	1.01
E57 [5], 111.1 nM	–	0.965
E57 [5], 333.3 nM	–	1.07
E57 [5], 1000 nM	–	0.984
E57 [5], 3000 nM	–	0.981
E57 [12], 4.1 nM	1.25	–
E57 [12], 12.3 nM	1.12	–
E57 [12], 37 nM	0.554	–
E57 [12], 111.1 nM	0.42	–
E57 [12], 333.3 nM	0.699	–
E57 [12], 1000 nM	0.559	–
E57 [12], 3000 nM	0.776	–
FT3469 [6], 4.1 nM	–	0.987
FT3469 [6], 12.3 nM	–	0.951
FT3469 [6], 37 nM	–	0.972
FT3469 [6], 111.1 nM	–	0.985
FT3469 [6], 333.3 nM	–	1.05
FT3469 [6], 1000 nM	–	1.09
FT3469 [6], 3000 nM	–	0.987
FT3469 [13], 4.1 nM	0.887	–
FT3469 [13], 12.3 nM	0.632	–
FT3469 [13], 37 nM	0.988	–
FT3469 [13], 111.1 nM	0.539	–
FT3469 [13], 333.3 nM	4.03	–
FT3469 [13], 1000 nM	0.686	–
FT3469 [13], 3000 nM	0.525	–

CC(C)(C)C1CCN(C(=O)n2ncc(C(O)(c3ccccc3)c3ccccc3)n2)CC1 [ML211]
Conditions	phenotypic distance	surviving fraction
E13 [3], 4.1 nM	–	0.909
E13 [3], 12.3 nM	–	0.883
E13 [3], 37 nM	–	0.918
E13 [3], 111.1 nM	–	0.985
E13 [3], 333.3 nM	–	0.984
E13 [3], 1000 nM	–	0.975
E13 [3], 3000 nM	–	0.916
E13 [10], 4.1 nM	0.844	–
E13 [10], 12.3 nM	0.731	–
E13 [10], 37 nM	0.757	–
E13 [10], 111.1 nM	0.461	–
E13 [10], 333.3 nM	0.703	–
E13 [10], 1000 nM	0.699	–
E13 [10], 3000 nM	0.911	–
E21 [4], 4.1 nM	–	0.93
E21 [4], 12.3 nM	–	0.888
E21 [4], 37 nM	–	0.946
E21 [4], 111.1 nM	–	0.8973
E21 [4], 333.3 nM	–	0.973
E21 [4], 1000 nM	–	0.9031
E21 [4], 3000 nM	–	0.889
E21 [11], 4.1 nM	0.863	–
E21 [11], 12.3 nM	0.923	–
E21 [11], 37 nM	0.671	–
E21 [11], 111.1 nM	0.652	–
E21 [11], 333.3 nM	0.683	–
E21 [11], 1000 nM	0.885	–
E21 [11], 3000 nM	0.961	–
E28 [1], 4.1 nM	–	1.09
E28 [1], 12.3 nM	–	1
E28 [1], 37 nM	–	1
E28 [1], 111.1 nM	–	1
E28 [1], 333.3 nM	–	0.987
E28 [1], 1000 nM	–	0.9874
E28 [1], 3000 nM	–	0.883
E28 [8], 4.1 nM	0.935	–
E28 [8], 12.3 nM	0.886	–
E28 [8], 37 nM	0.733	–
E28 [8], 111.1 nM	0.678	–
E28 [8], 333.3 nM	0.596	–
E28 [8], 1000 nM	0.668	–
E28 [8], 3000 nM	1.42	–
E31 [7], 4.1 nM	–	0.9689
E31 [7], 12.3 nM	–	0.979
E31 [7], 37 nM	–	0.993
E31 [7], 111.1 nM	–	0.928
E31 [7], 333.3 nM	–	1.04
E31 [7], 1000 nM	–	0.973
E31 [7], 3000 nM	–	0.823
E31 [14], 4.1 nM	0.563	–
E31 [14], 12.3 nM	0.567	–
E31 [14], 37 nM	0.644	–
E31 [14], 111.1 nM	0.641	–
E31 [14], 333.3 nM	1.05	–
E31 [14], 1000 nM	0.871	–
E31 [14], 3000 nM	1.12	–
E34 [2], 4.1 nM	–	0.956
E34 [2], 12.3 nM	–	0.941
E34 [2], 37 nM	–	0.95
E34 [2], 111.1 nM	–	0.868
E34 [2], 333.3 nM	–	0.976
E34 [2], 1000 nM	–	0.965
E34 [2], 3000 nM	–	0.8932
E34 [9], 4.1 nM	1.21	–
E34 [9], 12.3 nM	0.912	–
E34 [9], 37 nM	1.05	–
E34 [9], 111.1 nM	0.782	–
E34 [9], 333.3 nM	0.763	–
E34 [9], 1000 nM	0.734	–
E34 [9], 3000 nM	0.728	–
E57 [5], 4.1 nM	–	0.995
E57 [5], 12.3 nM	–	1
E57 [5], 37 nM	–	0.9744
E57 [5], 111.1 nM	–	1.02
E57 [5], 333.3 nM	–	0.964
E57 [5], 1000 nM	–	0.974
E57 [5], 3000 nM	–	0.894
E57 [12], 4.1 nM	0.588	–
E57 [12], 12.3 nM	0.447	–
E57 [12], 37 nM	0.552	–
E57 [12], 111.1 nM	0.483	–
E57 [12], 333.3 nM	0.642	–
E57 [12], 1000 nM	0.6	–
E57 [12], 3000 nM	0.835	–
FT3469 [6], 4.1 nM	–	0.879
FT3469 [6], 12.3 nM	–	1.008
FT3469 [6], 37 nM	–	0.989
FT3469 [6], 111.1 nM	–	0.934
FT3469 [6], 333.3 nM	–	0.885
FT3469 [6], 1000 nM	–	0.816
FT3469 [6], 3000 nM	–	0.817
FT3469 [13], 4.1 nM	1.1	–
FT3469 [13], 12.3 nM	0.699	–
FT3469 [13], 37 nM	0.637	–
FT3469 [13], 111.1 nM	0.748	–
FT3469 [13], 333.3 nM	0.841	–
FT3469 [13], 1000 nM	1.25	–
FT3469 [13], 3000 nM	1.74	–
